Here are results for 35 compounds from patent publication US8916702B2 (priority 2012, dated 2014).

The experiment relates to HCV pseudoparticles (genotype 1a HCV E1 and E2 envelope, H77C isolate). In words: microbe, parasite or virus in culture. In kind it is cell-based. The note with it: Hepatitis C virus.
The mark [1] stands for this setting: Huh-7, read-out: Activity (EC50 class), HCV pseudoparticles (genotype 1a, H77C) in Huh7 cells, EC50 expressed as class A/B.
[2] abbreviates: Huh-7, 48 h, HCV pseudoparticles (genotype 1a, H77C) in Huh7 cells, average of duplicate, luciferase 2 days after infection.

In general, pEC50 refers to the EC50 on a negative log10 scale, so that one unit is a factor of ten.

Each structure is given as a SMILES string. pEC50: −log10 of the molar value. Read-outs that look alike come from different tables or passages of the source.

In the case of `COc1ccc(C2(Nc3nc(Nc4ccc(C(=O)NCC(C)(C)CNC(=O)C(N)=O)cc4)nc(OCC(F)(F)F)n3)CC2)cc1Cl` [Compound 3333], the pEC50 under setting [1] is 8.00 to 11.00. As to `Cc1cc(NC(=O)C(=O)NCC(C)CNC(=O)c2ccc(Nc3nc(NC4(c5ccc(Cl)cc5)CC4)nc(OCC(F)(F)F)n3)cc2)no1` (stereo not shown) [Compound 3334], the pEC50 runs as follows: under setting [2], 10.21; under setting [1], 8.00 to 11.00. For the compound `CC(CNC(=O)C(=O)Nc1ccc(F)cc1)CNC(=O)c1ccc(Nc2nc(NC3(c4ccc(Cl)cc4)CC3)nc(OCC(F)(F)F)n2)cc1` (stereo not shown) [Compound 3335], the negative logarithm of the EC50 (pEC50) under setting [1] was 8.00 to 11.00.

Turning to `CC1CC(=O)c2ccc(NC(=O)C(=O)NCC(C)(C)CNC(=O)c3ccc(Nc4nc(NC5(c6ccc(Cl)cc6)CC5)nc(OCC(F)(F)F)n4)cc3)cc2O1` (stereo not shown) [Compound 3336], the pEC50 runs as follows: under setting [2], 10.05; under setting [1], 8.00 to 11.00. Regarding `CC(C)(CNC(=O)C(=O)Nc1ccc2cc[nH]c2c1)CNC(=O)c1ccc(Nc2nc(NC3(c4ccc(Cl)cc4)CC3)nc(OCC(F)(F)F)n2)cc1` [Compound 3337], the pEC50 under setting [1] was 8.00 to 11.00.

`CC(C)(CNC(=O)C(=O)Nc1ccc2[nH]ccc2c1)CNC(=O)c1ccc(Nc2nc(NC3(c4ccc(Cl)cc4)CC3)nc(OCC(F)(F)F)n2)cc1` [Compound 3338]: the pEC50 under setting [1] was 8.00 to 11.00. `Cc1noc2ccc(NC(=O)C(=O)NCC(C)(C)CNC(=O)c3ccc(Nc4nc(NC5(c6ccc(Cl)cc6)CC5)nc(OCC(F)(F)F)n4)cc3)cc12` [Compound 3339]: under setting [1], the pEC50 is 8.00 to 11.00. Still for that read-out and setting: with `CC(C)(CNC(=O)C(=O)Nc1ccc2ncsc2c1)CNC(=O)c1ccc(Nc2nc(NC3(c4ccc(Cl)cc4)CC3)nc(OCC(F)(F)F)n2)cc1` [Compound 3340] the figure was 8.00 to 11.00; with `Cn1cnc2ccc(NC(=O)C(=O)NCC(C)(C)CNC(=O)c3ccc(Nc4nc(NC5(c6ccc(Cl)cc6)CC5)nc(OCC(F)(F)F)n4)cc3)cc21` [Compound 3341], 8.00 to 11.00; with `NC(=O)C(=O)NCCCNC(=O)c1ccc(Nc2nc(NC3(c4ccc(Cl)cc4)CC3)nc(OCC(F)(F)F)n2)cc1` [Compound 3342], 8.00 to 11.00. Consider `Cc1cc(NC(=O)C(=O)NCCCNC(=O)c2ccc(Nc3nc(NC4(c5ccc(Cl)cc5)CC4)nc(OCC(F)(F)F)n3)cc2)no1` [Compound 3343], for which the pEC50 under setting [1] was 8.00 to 11.00. On to `CC(C)(CNC(=O)C(=O)Nc1cccc2c1-c1ccccc1C2=O)CNC(=O)c1ccc(Nc2nc(NC3(c4ccc(Cl)cc4)CC3)nc(OCC(F)(F)F)n2)cc1` [Compound 3344], for which the pEC50 under setting [1] is 8.00 to 11.00. Regarding `CC(CNC(=O)C(N)=O)CNC(=O)c1ccc(Nc2nc(NC3(c4ccc(Cl)cc4)CC3)nc(OCC(F)(F)F)n2)cc1` (stereo not shown) [Compound 3345], the pEC50 under setting [1] is 8.00 to 11.00. On to `CC(CNC(=O)C(=O)NCc1ccc(F)cc1)CNC(=O)c1ccc(Nc2nc(NC3(c4ccc(Cl)cc4)CC3)nc(OCC(F)(F)F)n2)cc1` (stereo not shown) [Compound 3346], for which the pEC50 under setting [2] is 10.17 and the negative-log EC50 (pEC50) under setting [1] is 8.00 to 11.00. `CC(C)(CNC(=O)C(=O)Nc1ccc2ccccc2c1)CNC(=O)c1ccc(Nc2nc(NC3(c4ccc(Cl)cc4)CC3)nc(OCC(F)(F)F)n2)cc1` [Compound 3347]: the negative-log EC50 (pEC50) under setting [1] was 8.00 to 11.00. Turning to `CC(CNC(=O)C(=O)Nc1cccc(F)c1)CNC(=O)c1ccc(Nc2nc(NC3(c4ccc(Cl)cc4)CC3)nc(OCC(F)(F)F)n2)cc1` (stereo not shown) [Compound 3348], the negative-log EC50 (pEC50) under setting [1] is 8.00 to 11.00. As to `O=C(NCCCNC(=O)c1ccc(Nc2nc(NC3(c4ccc(Cl)cc4)CC3)nc(OCC(F)(F)F)n2)cc1)C(=O)Nc1cccc(F)c1` [Compound 3349], the negative-log EC50 (pEC50) was 10.39 under setting [2] and 8.00 to 11.00 under setting [1].

On to `CC(C)(CNC(=O)C(=O)Nc1nc2c(s1)CCCC2)CNC(=O)c1ccc(Nc2nc(NC3(c4ccc(Cl)cc4)CC3)nc(OCC(F)(F)F)n2)cc1` [Compound 3350], for which, under setting [1], the pEC50 is 8.00 to 11.00. With `COc1ccc(C2(Nc3nc(Nc4ccc(C(=O)NCC(C)(C)CNC(=O)C(N)=O)cc4)nc(OCC(F)(F)F)n3)CC2)cc1C(F)(F)F` [Compound 3351], the negative-log EC50 (pEC50) under setting [1] is 8.00 to 11.00. On the same count and under the same terms, with `CC(C)(CNC(=O)C(=O)Nc1ccc2[nH]nnc2c1)CNC(=O)c1ccc(Nc2nc(NC3(c4ccc(Cl)cc4)CC3)nc(OCC(F)(F)F)n2)cc1` [Compound 3352] the figure was 8.00 to 11.00; with `Cc1ccc(NC(=O)C(=O)NCC(C)CNC(=O)c2ccc(Nc3nc(NC4(c5ccc(Cl)cc5)CC4)nc(OCC(F)(F)F)n3)cc2)cc1` (stereo not shown) [Compound 3353], 8.00 to 11.00. Same read-out and setting: next, `Cc1cc2cccc(NC(=O)C(=O)NCC(C)(C)CNC(=O)c3ccc(Nc4nc(NC5(c6ccc(Cl)cc6)CC5)nc(OCC(F)(F)F)n4)cc3)c2o1` [Compound 3354]: 8.00 to 11.00; `CC(C)(CNC(=O)C(=O)Nc1ccc2c(c1)CCC2=O)CNC(=O)c1ccc(Nc2nc(NC3(c4ccc(Cl)cc4)CC3)nc(OCC(F)(F)F)n2)cc1` [Compound 3355]: 8.00 to 11.00; `CC(C)(CNC(=O)C(=O)Nc1cccc2c1Cc1ccccc1-2)CNC(=O)c1ccc(Nc2nc(NC3(c4ccc(Cl)cc4)CC3)nc(OCC(F)(F)F)n2)cc1` [Compound 3356]: 8.00 to 11.00. As to `O=C(NCCCNC(=O)c1ccc(Nc2nc(NC3(c4ccc(Cl)cc4)CC3)nc(OCC(F)(F)F)n2)cc1)C(=O)NCc1ccc(F)cc1` [Compound 3357], under setting [1], the pEC50 was 8.00 to 11.00.

On to `Cc1ccc(NC(=O)C(=O)NCCCNC(=O)c2ccc(Nc3nc(NC4(c5ccc(Cl)cc5)CC4)nc(OCC(F)(F)F)n3)cc2)cc1` [Compound 3358], for which the negative logarithm of the EC50 (pEC50) is 10.47 under setting [2] and 8.00 to 11.00 under setting [1]. `CC(C)(CNC(=O)C(=O)Nc1ccc2c(c1)COC2=O)CNC(=O)c1ccc(Nc2nc(NC3(c4ccc(Cl)cc4)CC3)nc(OCC(F)(F)F)n2)cc1` [Compound 3359]: under setting [1], the negative-log EC50 (pEC50) was 8.00 to 11.00.

Consider `O=C(NCCCNC(=O)c1ccc(Nc2nc(NC3(c4ccc(Cl)cc4)CC3)nc(OCC(F)(F)F)n2)cc1)C(=O)Nc1ccc(F)cc1` [Compound 3360], for which the negative logarithm of the EC50 (pEC50) under setting [1] was 8.00 to 11.00. As for `CC(C)(CNC(=O)C(=O)Nc1ccc(CCCC(=O)O)cc1)CNC(=O)c1ccc(Nc2nc(NC3(c4ccc(Cl)cc4)CC3)nc(OCC(F)(F)F)n2)cc1` [Compound 3361], the negative-log EC50 (pEC50) is, setting by setting: under setting [2], 9.80; under setting [1], 8.00 to 11.00. Take `C=Cc1ccccc1NC(=O)C(=O)NCC(C)(C)CNC(=O)c1ccc(Nc2nc(NC3(c4ccc(Cl)cc4)CC3)nc(OCC(F)(F)F)n2)cc1` [Compound 3362]: under setting [1], the negative logarithm of the EC50 (pEC50) is 8.00 to 11.00. In the case of `O=C(CNC(=O)C(=O)Nc1cccc(F)c1)CNC(=O)c1ccc(Nc2nc(NC3(c4ccc(Cl)cc4)CC3)nc(OCC(F)(F)F)n2)cc1` [Compound 3363], the pEC50 under setting [1] is 8.00 to 11.00. Same read-out and setting: next, `Cc1cc(NC(=O)C(=O)NCC(O)CNC(=O)c2ccc(Nc3nc(NC4(c5ccc(Cl)cc5)CC4)nc(OCC(F)(F)F)n3)cc2)no1` (stereo not shown) [Compound 3364]: 8.00 to 11.00. In the case of `O=C(NCC(O)CNC(=O)c1ccc(Nc2nc(NC3(c4ccc(Cl)cc4)CC3)nc(OCC(F)(F)F)n2)cc1)C(=O)Nc1ccc(F)cc1` (stereo not shown) [Compound 3365], the pEC50 is, setting by setting: under setting [2], 10.62; under setting [1], 8.00 to 11.00. Turning to `COc1ncccc1NC(=O)C(=O)NCC(C)(C)CNC(=O)c1ccc(Nc2nc(NC3(c4ccc(Cl)cc4)CC3)nc(OCC(F)(F)F)n2)cc1` [Compound 3366], the negative-log EC50 (pEC50) reads like this: under setting [2], 9.85; under setting [1], 8.00 to 11.00.

As for `Cc1ccc(NC(=O)C(=O)NCC(O)CNC(=O)c2ccc(Nc3nc(NC4(c5ccc(Cl)cc5)CC4)nc(OCC(F)(F)F)n3)cc2)cc1` (stereo not shown) [Compound 3367], under setting [1], the pEC50 is 8.00 to 11.00.
